Converted amounts (≈) assume the structure as drawn.
Assays:
Kinetic solubility = assay type: physicochemical; details: Dulbecco's phosphate buffer saline (DPBS), aqueous buffer, kinetic from dmso stock, DPBS pH 7.4, 25° C., 200 μM test compound
Experimental: Example 144. Kinetic Solubility
10 μL of 10 mM DMSO stock solution were aliquotted to 490 μL of DMSO solution and separately 490 μL of Dulbecco's phosphate buffer saline, DPBS, pH 7.4 solution in 1.2 mL 96-well plates in duplicate. Final concentration was 200 μM of the test compound. Samples were incubated at 25° C. with shaking at 200 rpm for 16 h. Samples were centrifuged at 3500 rpm for 20 min at 25° C., and supernatant was submitted for HPLC analysis.
Kinetic solubility was measured using the following equation: […]

[1] = test system: Human Heme Oxygenase-1 (HMOX-1); test: ELISA assay to measure human heme oxygenase-1 (HMOX-1) in HepG2 lysate; assay type: cell-based; details: human HMOX1 protein level in HepG2 lysate; * = average of 2 or more EC50 determinations; NA = Not Active; read-out: EC50
Summary of the method: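 Treated HepG2 cells were lysed in PBS with 0.5% Triton X100, 1 mM EDTA and protease inhibitors, and lysates were diluted 1:20. HO-1 was measured by sandwich ELISA (biotinylated detection antibody, streptavidin-HRP, chemiluminescence) at room temperature against a standard curve from 20 ng/ml. EC50 and fold change were expressed relative to DMSO control.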

Structure (SMILES) | solubility at 16 h (Kinetic solubility) [µM] | EC50 [1] [µM]
COCCNC(=O)c1ccc2c(c1)nc(Nc1nc3ccc(OC(F)F)cc3o1)n2C [Example 63, 2-((6-(difluoromethoxy)benzo[d]oxazol-2-yl)amino)-N-(2-methoxyethyl)-1-methyl-1H-benzo[d]imidazole-5-carboxamide] | 0.8 (≈ 0.345 µg/mL) | 1.3
CC(O)CONC(=O)c1ccc2c(c1)nc(Nc1nc3ccccc3o1)n2C (stereo not drawn) [Example 120, 2-(benzo[d]oxazol-2-ylamino)-N-(2-hydroxypropoxy)-1-methyl-1H-benzo[d]imidazole-5-carboxamide] | 6.5 (≈ 2.48 µg/mL) | 2
Cn1c(Nc2nc3ccc(C(F)(F)F)cc3o2)nc2cc(C(=O)NCCN3CCCC3)ccc21 [Example 36, 1-methyl-N-(2-(pyrrolidin-1-yl)ethyl)-2-((6-(trifluoromethyl)benzo[d]oxazol-2-yl)amino)-1H-benzo[d]imidazole-5-carboxamide] | 2.8 (≈ 1.32 µg/mL) | 1.3
Cn1c(Nc2nc3cc(C(F)(F)F)ccc3o2)nc2cc(C(=O)NCCOCCO)ccc21 [Example 43, N-(2-(2-hydroxyethoxy)ethyl)-1-methyl-2-((5-(trifluoromethyl)benzo[d]oxazol-2-yl)amino)-1H-benzo[d]imidazole-5-carboxamide] | 8 (≈ 3.71 µg/mL) | 1.3
Cn1c(Nc2nc3ccc(N4CCOCC4)cc3o2)nc2cc(C(=O)NCCOCCO)ccc21 [Example 136, N-(2-(2-hydroxyethoxy)ethyl)-1-methyl-2-((6-morpholinobenzo[d]oxazol-2-yl)amino)-1H-benzo[d]imidazole-5-carboxamide] | 10.6 (≈ 5.09 µg/mL) | 2.9
COCCNC(=O)c1ccc2c(c1)nc(Nc1nc3ccc(OCCO)cc3o1)n2C [Example 102, 2-((6-(2-hydroxyethoxy)benzo[d]oxazol-2-yl)amino)-N-(2-methoxyethyl)-1-methyl-1H-benzo[d]imidazole-5-carboxamide] | 5.3 (≈ 2.25 µg/mL) | 1.3
Cn1c(Nc2nc3ccc(OC(F)(F)F)cc3o2)nc2cc(C(=O)NC3COC3)ccc21 [Example 51, 1-methyl-N-(oxetan-3-yl)-2-((6-(trifluoromethoxy)benzo[d]oxazol-2-yl)amino)-1H-benzo[d]imidazole-5-carboxamide] | < 2 | 1.4
Cn1c(Nc2nc3ccc(C(C)(C)O)cc3o2)nc2cc(C(=O)NCCO)ccc21 [Example 133, N-(2-hydroxyethyl)-2-((6-(2-hydroxypropan-2-yl)benzo[d]oxazol-2-yl)amino)-1-methyl-1H-benzo[d]imidazole-5-carboxamide] | 9.2 (≈ 3.77 µg/mL) | 5.3
Cn1c(Nc2nc3ccc(OC(F)(F)F)cc3o2)nc2cc(C(=O)NC(CO)CO)ccc21 [Example 48, N-(1,3-dihydroxypropan-2-yl)-1-methyl-2-((6-(trifluoromethoxy)benzo[d]oxazol-2-yl)amino)-1H-benzo[d]imidazole-5-carboxamide] | 3.9 (≈ 1.82 µg/mL) | 2
Cn1c(Nc2nc3ccc(OCCO)cc3o2)nc2cc(C(=O)NCCO)ccc21 [Example 103, 2-((6-(2-hydroxyethoxy)benzo[d]oxazol-2-yl)amino)-N-(2-hydroxyethyl)-1-methyl-1H-benzo[d]imidazole-5-carboxamide] | > 20 | 3.1
Cn1c(Nc2nc3cccc(C(F)(F)F)c3o2)nc2cc(C(=O)NCCOCCO)ccc21 [Example 117, N-(2-(2-hydroxyethoxy)ethyl)-1-methyl-2-((7-(trifluoromethyl)benzo[d]oxazol-2-yl)amino)-1H-benzo[d]imidazole-5-carboxamide] | 1.2 (≈ 0.556 µg/mL) | 1.8
O=C(O)c1ccc2c(c1)nc(Nc1nc3ccc(OC(F)(F)F)cc3o1)n2C1CCOCC1 [Example 79, 1-(tetrahydro-2H-pyran-4-yl)-2-((6-(trifluoromethoxy)benzo[d]oxazol-2-yl)amino)-1H-benzo[d]imidazole-5-carboxylic acid] | 12.4 (≈ 5.73 µg/mL) | 4
Cn1c(Nc2nc3ccc(OCCO)cc3o2)nc2cc(C(=O)NCCOCCO)ccc21 [Example 104, 2-((6-(2-hydroxyethoxy)benzo[d]oxazol-2-yl)amino)-N-(2-(2-hydroxyethoxy)ethyl)-1-methyl-1H-benzo[d]imidazole-5-carboxamide] | 6.6 (≈ 3.01 µg/mL) | 3.7
COCCNC(=O)c1ccc2c(c1)nc(Nc1nc3ccc(OC(F)(F)F)cc3o1)n2CC1(O)COC1 [Example 94, 1-((3-hydroxyoxetan-3-yl)methyl)-N-(2-methoxyethyl)-2-((6-(trifluoromethoxy)benzo[d]oxazol-2-yl)amino)-1H-benzo[d]imidazole-5-carboxamide] | 0.3 (≈ 0.156 µg/mL) | 1.3
COCCNC(=O)c1ccc2c(c1)nc(Nc1nc3cccnc3o1)n2C [Example 109, N-(2-methoxyethyl)-1-methyl-2-(oxazolo[5,4-b]pyridin-2-ylamino)-1H-benzo[d]imidazole-5-carboxamide] | 7.4 (≈ 2.71 µg/mL) | 6.1
CC(C)c1ccc2nc(Nc3nc4cc(C(=O)NCCO)ccc4n3C)oc2c1 [Example 61, N-(2-hydroxyethyl)-2-((6-isopropylbenzo[d]oxazol-2-yl)amino)-1-methyl-1H-benzo[d]imidazole-5-carboxamide] | 1.2 (≈ 0.472 µg/mL) | 1.5
Cn1c(Nc2nc3cccnc3o2)nc2cc(C(=O)NCCO)ccc21 [Example 110, N-(2-hydroxyethyl)-1-methyl-2-(oxazolo[5,4-b]pyridin-2-ylamino)-1H-benzo[d]imidazole-5-carboxamide] | 18.9 (≈ 6.66 µg/mL) | 7.6
Cn1c(Nc2nc3ccccc3o2)nc2cc(C(=O)C(F)(F)F)ccc21 [Example 139, 1-(2-(benzo[d]oxazol-2-ylamino)-1-methyl-1H-benzo[d]imidazol-5-yl)-2,2,2-trifluoroethan-1-one] | < 2 | 2.6
Cn1c(Nc2nc3ccccc3o2)nc2cc(C(N)C(F)(F)F)ccc21 (stereo not drawn) [Example 141, N-(5-(1-amino-2,2,2-trifluoroethyl)-1-methyl-1H-benzo[d]imidazol-2-yl)benzo[d]oxazol-2-amine] | 9 (≈ 3.25 µg/mL) | 3.6

Molecules with a lower EC50 [1], results first:

solubility at 16 h (Kinetic solubility) [µM] | EC50 [1] [µM] | Structure (SMILES)
5.3 (≈ 2.38 µg/mL) | 1.2 | Cn1c(Nc2nc3ccc(OCC(F)(F)F)cc3o2)nc2cc(C(=O)NCCO)ccc21 [Example 100, N-(2-hydroxyethyl)-1-methyl-2-((6-(2,2,2-trifluoroethoxy)benzo[d]oxazol-2-yl)amino)-1H-benzo[d]imidazole-5-carboxamide]
< 2 | 1.2 | CC(O)CNC(=O)c1ccc2c(c1)nc(Nc1nc3ccc(C(F)(F)F)cc3o1)n2C (stereo not drawn) [Example 35, N-(2-hydroxypropyl)-1-methyl-2-((6-(trifluoromethyl)benzo[d]oxazol-2-yl)amino)-1H-benzo[d]imidazole-5-carboxamide]
2.7 (≈ 1.12 µg/mL) | 1.1 | Cn1c(Nc2nc3ccccc3o2)nc2cc(C(=O)NCCOCCO)c(F)cc21 [Example 72, 2-(benzo[d]oxazol-2-ylamino)-6-fluoro-N-(2-(2-hydroxyethoxy)ethyl)-1-methyl-1H-benzo[d]imidazole-5-carboxamide]
< 5 | 0.91 | COCCNC(=O)c1ccc2c(c1)nc(Nc1nc3cc(F)ccc3o1)n2C [Example 67, 2-((5-fluorobenzo[d]oxazol-2-yl)amino)-N-(2-methoxyethyl)-1-methyl-1H-benzo[d]imidazole-5-carboxamide]
0.5 (≈ 0.252 µg/mL) | 0.69 | CN(C)CC(=O)NCCNC(=O)c1ccc2c(c1)nc(Nc1nc3ccc(C(F)(F)F)cc3o1)n2C [Example 40, N-(2-(2-(dimethylamino)acetamido)ethyl)-1-methyl-2-((6-(trifluoromethyl)benzo[d]oxazol-2-yl)amino)-1H-benzo[d]imidazole-5-carboxamide]
0.2 (≈ 0.0899 µg/mL) | 0.64 | COCCNC(=O)c1ccc2c(c1)nc(Nc1nc3ccc(OC(F)(F)F)cc3o1)n2C [Example 45, N-(2-methoxyethyl)-1-methyl-2-((6-(trifluoromethoxy)benzo[d]oxazol-2-yl)amino)-1H-benzo[d]imidazole-5-carboxamide]
< 2 | 0.5 | COCCONC(=O)c1ccc2c(c1)nc(Nc1nc3ccc(OC(F)(F)F)cc3o1)n2C [Example 127, N-(2-methoxyethoxy)-1-methyl-2-((6-(trifluoromethoxy)benzo[d]oxazol-2-yl)amino)-1H-benzo[d]imidazole-5-carboxamide]
2.1 (≈ 0.948 µg/mL) | 0.5 | Cn1c(Nc2nc3ccc(OC(F)(F)F)cc3o2)nc2cc(C(=O)NOCCO)ccc21 [Example 126, N-(2-hydroxyethoxy)-1-methyl-2-((6-(trifluoromethoxy)benzo[d]oxazol-2-yl)amino)-1H-benzo[d]imidazole-5-carboxamide]
